Literature values, collected in patent US20080292714A1, “BONE TARGETING OF DEGRADABLE DRUG FILLED NANOPARTICLES” (Semafore Pharmaceuticals Inc., priority 2003, published 2008).

Key:
[1] = portion not accumulated in skeleton
[2] = target: T1, p53 (Mus musculus, UniProt P02340)
T1 construct: endogenous in cells; host or cells: living mice, C57BL and Balb/c strains

[3] = system: C8 (mouse embryo fibroblasts transformed with Ela+ras) cells; settings: 10 micromolar

T1 sequence (P02340 whole entry): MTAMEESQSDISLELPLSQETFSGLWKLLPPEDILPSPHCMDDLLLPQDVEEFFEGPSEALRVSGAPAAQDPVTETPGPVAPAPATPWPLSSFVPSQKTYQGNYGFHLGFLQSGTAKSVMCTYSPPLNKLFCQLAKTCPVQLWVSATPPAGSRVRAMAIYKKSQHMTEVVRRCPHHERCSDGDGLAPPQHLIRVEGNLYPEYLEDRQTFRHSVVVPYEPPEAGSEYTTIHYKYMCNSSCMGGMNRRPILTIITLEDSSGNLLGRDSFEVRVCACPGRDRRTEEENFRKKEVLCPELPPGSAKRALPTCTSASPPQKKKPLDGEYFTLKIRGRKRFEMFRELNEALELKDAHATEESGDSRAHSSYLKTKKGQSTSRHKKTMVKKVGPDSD

Row | SMILES | time after administration at which excretion is almost complete [1] [h] | tumors or pathological lesions in gamma-irradiated survivors ([2]; 7 months post-irradiation) | weight loss versus controls ([2]; irradiated treated mice) | protective effect in p53-null mice treated with radiation ([2]; p53-null mice controls) | rescue from 60% killing doses of gamma radiation ([2]; single i.p. injection 2.2 mg/kg, 8 Gy C57BL, 6 Gy Balb/c) | inhibition of apoptosis induced by doxorubicin, etoposide, Taxol, cytosine arabinoside, UV light, gamma radiation [3]
1 | O=P([O-])(O)CN(CCN(CP(=O)([O-])O)CP(=O)(O)O)CP(=O)([O-])O.[153Sm+3] [^153Sm-EDTMP] | ≤ 6 | – | – | – | – | –
2 | Cc1ccc(C(=O)Cn2c3c(sc2=N)CCCC3)cc1 [pifithrin-α, 2-[2-imino-4,5,6,7-tetrahydro-1,3-benzothiazol-3(2H)-yl]-1-(4-methylphenyl)-1-ethanone] | – | no tumors or pathological lesions were found | less weight-loss than controls | no protective effect | completely rescued | inhibited apoptosis
